Patent US8815841B2, “1,4-Oxazepines as BACE1 and/or BACE2 inhibitors” (Hoffmann-La Roche Inc., priority 2011, dated 2014)
Structures can show the parent of a compound that is named as a salt.

Experiments:
[1] = tested on: Aβ40 in Human HEK293 cells stably transfected with human APP wt gene (APP695); experiment: Cellular Aβ-lowering assay; assay type: cell-based; conditions: HEK293 cells expressing human APP695, Aβ40 in culture supernatant by ELISA after 18-20 hrs; read-out: Cellular assay Abeta40 IC50
Procedure: Cellular Aβ-lowering Assay:
Human HEK293 cells which are stably transfected with a vector expressing a cDNA of the human APP wt gene (APP695) were used to assess the potency of the compounds in a cellular assay. The cells were seeded in 96-well microtiter plates in cell culture medium (Iscove, plus 10% (v/v) fetal bovine serum, glutamine, penicillin/streptomycin) to about 80% confluence and the compounds were added at a 10× concentration in 1/10 volume of medium without FCS containing 8% DMSO (final concentration of DMSO was kept at 0.8% v/v). After 18-20 hrs incubation at 37° C. and 5% CO2 in a humidified incubator the culture supernatant was harvested for the determination of Aβ40 concentrations. 96 well ELISA plates (e.g., Nunc MaxiSorb) were coated with monoclonal antibody which specifically recognize the C-terminal end of Aβ40 (Brockhaus et al., NeuroReport 9, 1481-1486; 1998). After blocking of non-specific binding sites with e.g. 1% BSA and washing, the culture supernatants were added in suitable dilutions together with a horseradish peroxidase-coupled Aβ detection antibody (e.g., antibody 4G8, Senetek, Maryland Heights, Mo.) and incubated for 5 to 7 hrs. Subsequently the wells of the microtiter plate were washed extensively with Tris-buffered saline containing 0.05% Tween 20 and the assay was developed with tetramethylbenzidine/H2O2 in citric acid buffer. After stopping the reaction with one volume 1 NH2SO4 the reaction was measured in an ELISA reader at 450 nm wavelength. The concentrations of Aβ in the culture supernatants were calculated from a standard curve obtained with known amounts of pure Aβ peptide.

[2] = biological target: T1, endogenous cellular BACE2 (human TMEM27 cleavage) in the Ins 1e rat cell line (Rattus norvegicus, UniProt Q6IE75); experiment: Assay for BACE inhibition by measuring cellular TMEM27 cleavage; assay type: cell-based; conditions: INS-TMEM27 cells, shed TMEM27 in culture medium by ELISA
T1 construct: endogenous cellular BACE2 in the Ins 1e rat cell line; endogenous in cells; host or cells: INS-TMEM27 (INS1e-derived rat cell line with doxycycline-inducible full-length human TMEM27)
T1 sequence (Q6IE75 63-514): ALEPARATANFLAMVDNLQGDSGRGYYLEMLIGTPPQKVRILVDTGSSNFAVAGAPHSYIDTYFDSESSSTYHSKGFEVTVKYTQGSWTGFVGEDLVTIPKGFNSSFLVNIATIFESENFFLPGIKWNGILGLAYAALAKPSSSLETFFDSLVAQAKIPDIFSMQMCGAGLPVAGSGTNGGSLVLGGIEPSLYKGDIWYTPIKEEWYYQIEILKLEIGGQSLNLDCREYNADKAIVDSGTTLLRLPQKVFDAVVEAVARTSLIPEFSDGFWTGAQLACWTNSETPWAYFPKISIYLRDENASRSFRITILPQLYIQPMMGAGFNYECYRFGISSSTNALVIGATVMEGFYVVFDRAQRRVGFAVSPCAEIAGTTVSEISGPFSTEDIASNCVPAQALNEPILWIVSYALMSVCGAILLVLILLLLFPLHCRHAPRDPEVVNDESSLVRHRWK
Excerpt: Assay for BACE Inhibition by Measuring Cellular TMEM27 Cleavage:
The assay uses the principle of inhibition of human TMEM27 cleavage by endogenous cellular BACE2 in the Ins 1e rat cell line and shedding from the cell surface into the culture medium, followed by detection in an ELISA assay. Inhibition of BACE2 prevents the cleavage and shedding in a dose-dependent manner.
The stable cell line “INS-TMEM27” represents an INSle-derived cell line with inducible expression (using the TetOn system) of full-length hTMEM27 in a doxycycline-dependent manner. The cells are cultured throughout the experiment in RPMI1640+Glutamax (Invitrogen) Penicillin/Streptomycin, 10% Fetal bovine serum, […], […], 100 micrograms/ml G418 and 100 microgram/ml hygromycin and are grown inadherent culture at 37° C. in a standard CO2 cell culture incubator.
INS-TMEM27 cells are seeded in 96-well plates. After 2 days in culture, BACE2 inhibitor is added in a range of concentrations as required by the assay and after a further two hours, doxycycline is added to a final concentration of 500 ng/ml. The cells are incubated for a further 46 hours and the supernatant harvested for detection of shed TMEM27.
An ELISA assay (using a pair of mouse anti-human-TMEM27 antibodies, raised against the extracellular domain of TMEM27) is used for detection of TMEM27 in the culture medium. An EC50 for BACE2 inhibition is calculated using the ELISA readout for each inhibitor concentration with standard curve-fitting software such as XLFit for the Excel spreadsheet program.

| IC50 [2] | Structure (SMILES) | IC50 [1] |
| --- | --- | --- |
| 14600 nM | C[C@]1(c2cc(NC(=O)c3ncc(C(N)=O)cc3F)ccc2F)N=C(N)COCC1(F)F [Example 1, (R)—N2-(3-(3-Amino-6,6-difluoro-5-methyl-2,5,6,7-tetrahydro-1,4-oxazepin-5-yl)-4-fluorophenyl)-3-fluoropyridine-2,5-dicarboxamide formate] | 350 nM |
| 123 nM | C[C@]1(c2cc(NC(=O)c3ccc(C4CC4)cn3)ccc2F)N=C(N)COCC1(F)F [Example 7, (R)—N-(3-(3-Amino-6,6-difluoro-5-methyl-2,5,6,7-tetrahydro-1,4-oxazepin-5-yl)-4-fluorophenyl)-5-cyclopropylpicolinamide formate] | 25 nM |
| 662 nM | CC[C@]1(c2cc(NC(=O)c3ncoc3C3CC3)ccc2F)N=C(N)COCC1(F)F [Example 4, (R)—N-(3-(3-Amino-5-ethyl-6,6-difluoro-2,5,6,7-tetrahydro-1,4-oxazepin-5-yl)-4-fluorophenyl)-5-cyclopropyloxazole-4-carboxamide] | 2400 nM |
| 5730 nM | C[C@]1(c2cc(NC(=O)c3ccc(-c4nccs4)cn3)ccc2F)N=C(N)COCC1(F)F [Example 3, (R)—N-(3-(3-Amino-6,6-difluoro-5-methyl-2,5,6,7-tetrahydro-1,4-oxazepin-5-yl)-4-fluorophenyl)-5-(thiazol-2-yl)picolinamide formate] | 10 nM |
| 22.6 nM | C[C@]1(c2cc(NCC3CC3)ccc2F)N=C(N)COC[C@@H]1F [Example 9, (5R,6R)-5-(5-(Cyclopropylmethylamino)-2-fluorophenyl)-6-fluoro-5-methyl-2,5,6,7-tetrahydro-1,4-oxazepin-3-amine] | 28 nM |
| 837 nM | COCC#Cc1ccc(C(=O)Nc2ccc(F)c([C@@]3(C)N=C(N)COCC3(F)F)c2)nc1 [Example 8, (R)—N-(3-(3-Amino-6,6-difluoro-5-methyl-2,5,6,7-tetrahydro-1,4-oxazepin-5-yl)-4-fluorophenyl)-5-(3-methoxyprop-1-ynyl)picolinamide formate] | 70 nM |
| 311 nM | C[C@]1(c2cc(NC(=O)c3ccc(C#CC4CC4)cn3)ccc2F)N=C(N)COCC1(F)F [Example 6, (R)—N-(3-(3-Amino-6,6-difluoro-5-methyl-2,5,6,7-tetrahydro-1,4-oxazepin-5-yl)-4-fluorophenyl)-5-(cyclopropylethynyl)picolinamide formate] | 20 nM |
| 103 nM | CSc1cnc(C(=O)Nc2ccc(F)c([C@@]3(C)N=C(N)COCC3(F)F)c2)cn1 [Example 5, (R)—N-(3-(3-Amino-6,6-difluoro-5-methyl-2,5,6,7-tetrahydro-1,4-oxazepin-5-yl)-4-fluorophenyl)-5-(methylthio)pyrazine-2-carboxamide formate] | 10 nM |
